Experimental data as given in patent US9322895B2, “Method of determining metabolic function using magnetic resonance spectroscopic imaging” (Greater Glasgow Health Board, priority 2009, dated 2016).

How the values were obtained:
[1] = standard temperature and pressure; cited from earlier work
[2] = test system: anaesthetised rats following a middle cerebral artery occlusion (MCAO); test: Localised 1H spectroscopy (PRESS) with oxygen challenge in rats following MCAO; type: in vivo; conditions: rat MCAO
Experimental: In-vivo MRI experiments were performed on anaesthetised rats following a middle cerebral artery occlusion (MCAO). The measurements included RARE T2 imaging, diffusion weighted imaging (DWI), perfusion weighted imaging (PWI), 1H localised spectroscopy and lactate difference imaging (LDI).
The first experiment used a standard localised spectroscopy sequence (PRESS) to acquire 1H spectra. One voxel was placed in the presumed penumbral region (as indicated by DWI/PWI mismatch), a second voxel was placed in the normal contralateral hemisphere (see FIG. 1)

For `FC1(F)C(F)(F)C(F)(F)C2(F)C(F)(F)C(F)(F)C(F)(F)C(F)(F)C2(F)C1(F)F` (stereo not shown) [Perflorodecalin], the “oxygen carried by 100 ml” value [1] is given as 49 mL.
For `O=O` [oxygen], the “lactate peak in the penumbra on returning to 100% inhaled air” value ([2]; after the oxygen challenge) was “increased back to previous level”, the “lactate peak in the penumbral region” value ([2]; challenge of 100% inhaled oxygen, voxel in DWI/PWI mismatch) was “significant decrease” and the “lactate peak in the contralateral region” value ([2]; challenge of 100% inhaled oxygen, voxel in normal contralateral hemisphere) was “remained unchanged”.
